Measured values published in patent publication US8778685B2 (priority 2009, dated 2014).

Assays:
[1] = no unit, species or route given; in mg/kg; cited from earlier work
[2] = in vivo

Compound	LD50 value [1]	times less toxic than sodium cyanide [2]
CC(C)(O)C#N [acetone cyanohydrin]	18.65	
N#CC(O)c1ccccc1 (stereo not drawn) [mandelonitrile]	116	approximately 18
